The record followed here is patent US20240368150A1 (Hoffmann-La Roche Inc., priority 2021, published 2024).

SMILES strings stand for the structures. Where two headings read alike, the source gives them in different places.

The subject of assay [1] is primary human T-cells. Put plainly: Proliferation assay after 5 days (CellTiter-Glo, CD3 stimulation; PBS counter screen). In kind it is cell-based. To be noted: Homo sapiens, T-cell, 120 h, CD3 stimulation; for Emax: 5 days, normalized to reference compound A1 as stimulator control = 100%, DMSO neutral control, read-out: Emax proliferation (% activation); for EC50: primary human T-cells, CellTiter-Glo after 5 days, EC50 of fitted sigmoidal curve, read-out: Tcell Proliferation CD3 EC50. In outline: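 Primary human T-cells, with or without CD3 stimulation, exposed to compounds for 5 days; cell number read as ATP by CellTiter-Glo 2.0 luminescence after 45 min equilibration and 15 min reagent incubation at room temperature. Compounds activating unstimulated cells or reducing viability were flagged.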
(ATP-based viability assays read luminescence as a measure of living cells.)

Assay [2] has as its system primary human T-cells.

As for `N[C@H]1CS(=O)(=O)c2cc(F)c(-c3nnc(C4CNCC(F)(F)C4)o3)cc2N(Cc2ccc(Cl)cc2)C1=O` (stereo partly drawn) [Example 160, (3R)-3-amino-5-[(4-chlorophenyl)methyl]-7-[5-(5,5-difluoro-3-piperidyl)-1,3,4-oxadiazol-2-yl]-8-fluoro-1,1-dioxo-2,3-dihydro-1λ^6,5-benzothiazepin-4-one], the Emax in the assay on primary human T-cells [1] was 96%. In addition, the figures for the EC50 in the assay on primary human T-cells [1] and with primary human T-cells [2] were 382 nM and 500 nM, respectively.
On to `CS(=O)(=O)N1CC(c2nnc(-c3cc4c(cc3F)S(=O)(=O)C[C@H](N)C(=O)N4Cc3ccc(Cl)cc3)o2)C2(CC2)C1` (stereo partly drawn) [Example 176, (3R)-3-amino-5-[(4-chlorophenyl)methyl]-8-fluoro-7-[5-(5-methylsulfonyl-5-azaspiro[2.4]heptan-7-yl)-1,3,4-oxadiazol-2-yl]-1,1-dioxo-2,3-dihydro-1λ^6,5-benzothiazepin-4-one], for which, in the assay with primary human T-cells [1], the Emax was 70% and the EC50 came to 4280 nM. The EC50 in the assay with primary human T-cells [2] came to 2510 nM.
For the molecule `CC(C)(C)c1nnc(-c2cc3c(cc2F)S(=O)(=O)C[C@H](N)C(=O)N3Cc2cccc(Cl)c2)o1` [Example 219, (3R)-3-amino-7-(5-tert-butyl-1,3,4-oxadiazol-2-yl)-5-[(3-chlorophenyl)methyl]-8-fluoro-1,1-dioxo-2,3-dihydro-1λ^6,5-benzothiazepin-4-one], in the assay on primary human T-cells [1], the Emax was found to be 105% and the EC50 turned out to be 2740 nM. This molecule also yielded an EC50 in the assay on primary human T-cells [2] of 3210 nM.
Consider `CC(F)(F)CNc1nnc(-c2ccc3c(c2)N(Cc2ccc(Cl)cc2)C(=O)[C@@H](N)CS3(=O)=O)o1` [Example 393, (3R)-3-amino-5-[(4-chlorophenyl)methyl]-7-[5-(2,2-difluoropropylamino)-1,3,4-oxadiazol-2-yl]-1,1-dioxo-2,3-dihydro-1λ^6,5-benzothiazepin-4-one], for which, in the assay on primary human T-cells [1], the Emax turned out to be 51% and the EC50 was 2820 nM. The EC50 with primary human T-cells [2] was 4010 nM.
Turning to `CC(C)(CN1CCCCC1)c1nnc(-c2cc3c(cc2F)S(=O)(=O)C[C@H](N)C(=O)N3Cc2ccc(Cl)cc2)o1` [Example 141, (3R)-3-amino-5-[(4-chlorophenyl)methyl]-7-[5-[1,1-dimethyl-2-(1-piperidyl)ethyl]-1,3,4-oxadiazol-2-yl]-8-fluoro-1,1-dioxo-2,3-dihydro-1λ^6,5-benzothiazepin-4-one], in the assay with primary human T-cells [1], the Emax was found to be 91%. Moreover, the EC50 was 768 nM in the assay on primary human T-cells [1] and 255 nM in the assay with primary human T-cells [2].
The matching figures for `CC(C)(C)c1nnc(-c2cc3c(cc2F)S(=O)(=O)C[C@H](N)C(=O)N3Cc2ccc(S(C)(=O)=O)cc2F)o1` [Example 240, (3R)-3-amino-7-(5-tert-butyl-1,3,4-oxadiazol-2-yl)-8-fluoro-5-[(2-fluoro-4-methylsulfonyl-phenyl)methyl]-1,1-dioxo-2,3-dihydro-1λ^6,5-benzothiazepin-4-one]: 74%, 5550 nM and 6390 nM.
The matching figures for `N[C@H]1CS(=O)(=O)c2cc(F)c(-c3nnc(NC4(CCO)CCCCC4)o3)cc2N(Cc2ccc(Cl)cc2)C1=O` [Example 483, (3R)-3-amino-5-[(4-chlorophenyl)methyl]-8-fluoro-7-[5-[[l-(2-hydroxyethyl)cyclohexyl]amino]-1,3,4-oxadiazol-2-yl]-1,1-dioxo-2,3-dihydro-1λ^6,5-benzothiazepin-4-one]: 79%, 1540 nM and 2600 nM.
For the molecule `CC(C)(C)c1nnc(-c2cc3c(cc2F)S(=O)(=O)C[C@H](N)C(=O)N3Cc2ccc(OCC(F)F)cc2)o1` [Example 222, (3R)-3-amino-7-(5-tert-butyl-1,3,4-oxadiazol-2-yl)-5-[[4-(2,2-difluoroethoxy)phenyl]methyl]-8-fluoro-1,1-dioxo-2,3-dihydro-1λ^6,5-benzothiazepin-4-one], the Emax with primary human T-cells [1] was determined as 119%. In addition, the values for the EC50 in the assay with primary human T-cells [1] and in the assay with primary human T-cells [2] were 235 nM and 535 nM, respectively.
Take `N[C@H]1CS(=O)(=O)c2ccc(-c3nnc(C4(N)CCCC4)o3)cc2N(Cc2ccc(OC(F)(F)F)cc2)C1=O` [Example 414, (3R)-3-amino-7-[5-(1-aminocyclopentyl)-1,3,4-oxadiazol-2-yl]-1,1-dioxo-5-[[4-(trifluoromethoxy)phenyl]methyl]-2,3-dihydro-1λ^6,5-benzothiazepin-4-one]: in the assay on primary human T-cells [1], the Emax is 83% and the EC50 came to 2590 nM. For the same molecule, the EC50 in the assay with primary human T-cells [2] was 4390 nM.
The matching figures for `CC(C)(CO)c1nnc(-c2cc3c(cc2F)S(=O)(=O)C[C@H](N)C(=O)N3Cc2ccc(C#N)cc2)o1` [Example 188, 4-[[(3R)-3-amino-8-fluoro-7-[5-(2-hydroxy-1,1-dimethyl-ethyl)-1,3,4-oxadiazol-2-yl]-1,1,4-trioxo-2,3-dihydro-1λ^6,5-benzothiazepin-5-yl]methyl]benzonitrile]: 29%, > 10000 nM and 3180 nM.
Take `COC(=O)N1CCC(c2nc(-c3cc4c(cc3F)S(=O)(=O)C[C@H](N)C(=O)N4Cc3ccc(OC(C)C)cc3)no2)C1` (stereo partly drawn) [Example 349]: in the assay on primary human T-cells [1], the Emax worked out at 124% and the EC50 is 399 nM. Moreover, in the assay with primary human T-cells [2], the EC50 was 1330 nM.
Turning to `CC(C)(F)c1nnc(-c2cc3c(cc2F)S(=O)(=O)C[C@H](N)C(=O)N3Cc2ccc(Cl)cc2)o1` [Example 70, (3R)-3-Amino-5-[(4-chlorophenyl)methyl]-8-fluoro-7-[5-(1-fluoro-1-methyl-ethyl)-1,3,4-oxadiazol-2-yl]-1,1-dioxo-2,3-dihydro-1λ^6,5-benzothiazepin-4-one], in the assay with primary human T-cells [1], the Emax is 255% and the EC50 worked out at 214 nM. For the same molecule, the EC50 in the assay on primary human T-cells [2] was 74.6 nM.
The matching figures for `NC1CN(c2nnc(-c3cc4c(cc3F)S(=O)(=O)C[C@H](N)C(=O)N4Cc3ccc(Cl)cc3)o2)CCC1(F)F` (stereo partly drawn) [Example 467, (3R)-3-amino-7-[5-(3-amino-4,4-difluoro-1-piperidyl)-1,3,4-oxadiazol-2-yl]-5-[(4-chlorophenyl)methyl]-8-fluoro-1,1-dioxo-2,3-dihydro-1λ^6,5-benzothiazepin-4-one]: 102%, 880 nM and 474 nM.
In the case of `N[C@H]1CS(=O)(=O)c2ccc(-c3nnc(C4(N)CCOCC4)o3)cc2N(Cc2ccc(OC(F)(F)F)cc2)C1=O` [Example 418, (3R)-3-amino-7-[5-(4-aminotetrahydropyran-4-yl)-1,3,4-oxadiazol-2-yl]-1,1-dioxo-5-[[4-(trifluoromethoxy)phenyl]methyl]-2,3-dihydro-1λ^6,5-benzothiazepin-4-one], in the assay with primary human T-cells [1], the Emax came to 52% and the EC50 is 9500 nM. For the same molecule, the EC50 in the assay on primary human T-cells [2] stood at 5740 nM.
Regarding `CC(C)(C)c1nnc(-c2ccc3c(c2)N(Cc2ccc(Oc4ccc(F)cc4)cc2)C(=O)[C@@H](N)CS3(=O)=O)o1` [Example 439, (3R)-3-amino-7-(5-tert-butyl-1,3,4-oxadiazol-2-yl)-5-[[4-(4-fluorophenoxy)phenyl]methyl]-1,1-dioxo-2,3-dihydro-1λ^6,5-benzothiazepin-4-one], in the assay on primary human T-cells [1], the Emax amounted to 138% and the EC50 is 299 nM. Moreover, in the assay on primary human T-cells [2], the EC50 stood at 2100 nM.
`CC(C)(CN1CCC(F)(F)CC1)c1nnc(-c2cc3c(cc2F)S(=O)(=O)C[C@H](N)C(=O)N3Cc2ccc(Cl)cc2)o1` [Example 142, (3R)-3-amino-5-[(4-chlorophenyl)methyl]-7-[5-[2-(4,4-difluoro-1-piperidyl)-1,1-dimethyl-ethyl]-1,3,4-oxadiazol-2-yl]-8-fluoro-1,1-dioxo-2,3-dihydro-1λ^6,5-benzothiazepin-4-one]: the Emax in the assay with primary human T-cells [1] turned out to be 66%. The EC50 in the assay with primary human T-cells [1] came to 138 nM; in the assay on primary human T-cells [2], 224 nM.
As for `CC(C)(C)c1nnc(-c2cc3c(cc2O)S(=O)(=O)C[C@H](N)C(=O)N3Cc2ccc(Cl)cc2)o1` [Example 273, (3R)-3-amino-7-(5-tert-butyl-1,3,4-oxadiazol-2-yl)-5-[(4-chlorophenyl)methyl]-8-hydroxy-1,1-dioxo-2,3-dihydro-1λ^6,5-benzothiazepin-4-one], in the assay with primary human T-cells [1], the Emax turned out to be 61% and the EC50 turned out to be 3190 nM. This molecule also had an EC50 in the assay with primary human T-cells [2] of 7210 nM.
For the molecule `N[C@H]1CS(=O)(=O)c2cc(F)c(-c3noc(NC4CC(F)(F)C4)n3)cc2N(Cc2ccc(Cl)cc2)C1=O` [Example 206], in the assay on primary human T-cells [1], the Emax worked out at 168% and the EC50 is 157 nM. Besides, the EC50 in the assay with primary human T-cells [2] is 542 nM.
As for `N[C@H]1CS(=O)(=O)c2ccc(-c3nnc(N4CCOC5(CC5)C4)o3)cc2N(Cc2ccc(Cl)cc2)C1=O` [Example 411, (3R)-3-amino-5-[(4-chlorophenyl)methyl]-7-[5-(4-oxa-7-azaspiro[2.5]octan-7-yl)-1,3,4-oxadiazol-2-yl]-1,1-dioxo-2,3-dihydro-1λ^6,5-benzothiazepin-4-one], in the assay on primary human T-cells [1], the Emax turned out to be 78% and the EC50 is 454 nM. In addition, in the assay with primary human T-cells [2], the EC50 was > 10000 nM.
Regarding `CC(=O)N1CCC(C)(c2nnc(-c3cc4c(cc3F)S(=O)(=O)C[C@H](N)C(=O)N4Cc3ccc(Cl)cc3)o2)CC1` [Example 169, (3R)-7-[5-(1-acetyl-4-methyl-4-piperidyl)-1,3,4-oxadiazol-2-yl]-3-amino-5-[(4-chlorophenyl)methyl]-8-fluoro-1,1-dioxo-2,3-dihydro-1λ^6,5-benzothiazepin-4-one], in the assay on primary human T-cells [1], the Emax was 95% and the EC50 turned out to be 2470 nM. Further, in the assay on primary human T-cells [2], the EC50 turned out to be 3340 nM.
For the molecule `CCn1cc(-c2cc3c(cc2F)S(=O)(=O)C[C@H](N)C(=O)N3Cc2ccc(Cl)cc2)cn1` [Example 279], in the assay with primary human T-cells [1], the Emax worked out at 90% and the EC50 came to 5340 nM. The EC50 in the assay on primary human T-cells [2] was determined as 470 nM.
With `CC(C)(C)n1nnc(-c2cc3c(cc2F)S(=O)(=O)C[C@H](N)C(=O)N3Cc2ccc(OC(F)(F)F)cc2)n1` [Example 30, (3R)-3-amino-7-(2-tert-butyltetrazol-5-yl)-8-fluoro-1,1-dioxo-5-[[4-(trifluoromethoxy)phenyl]methyl]-2,3-dihydro-1λ^6,5-benzothiazepin-4-one], the Emax in the assay with primary human T-cells [1] turned out to be 117%. In addition, the EC50 in the assay with primary human T-cells [1] stood at 43.5 nM; in the assay with primary human T-cells [2], 39.8 nM.
